GI50 and TGI data for ten compounds are collected here from PubChem BioAssay (NCI).

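All cell lines were grown in 96-well plates and treated with compound for 48 hours. At the GI50, growth is halved. At the TGI there is no net growth.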 A value given as a limit tells only on which side of the number the result lay.

Test systems include CAKI-1 renal; HS 578T breast; OVCAR-5 ovarian; NCI/ADR-RES ovarian; COLO 205 colon; U251 CNS; UACC-62 melanoma; ACHN renal; SF-539 CNS; SNB-19 CNS.
Holding throughout (test): DTP human tumour cell line panel, 48 h

By GI50 is commonly meant the concentration that inhibits growth by half. What is called TGI is the concentration at which net growth stops. Lower therefore signals more potent growth arrest. As to `O=c1cccc(C#CC#C/C=C/CO)o1`, the GI50 in the test on CAKI-1 renal was 1.91 µM; with HS 578T breast, 6.87 µM; with OVCAR-5 ovarian, 2.09 µM; in the test with NCI/ADR-RES ovarian, 2.52 µM; with COLO 205 colon it was 2.02 µM; in the test on U251 CNS, 1.89 µM. The GI50 with UACC-62 melanoma was 1.68 µM; with ACHN renal, 2.13 µM; in the test with SF-539 CNS, 3.19 µM; in the test with SNB-19 CNS, 3.06 µM. Besides, the concentration for total growth inhibition (TGI) was found to be 3.6 µM in the test on CAKI-1 renal; 39.9 µM in the test with HS 578T breast; 4.34 µM in the test on OVCAR-5 ovarian; 3.56 µM with COLO 205 colon; 3.84 µM in the test on U251 CNS; 3.39 µM in the test on UACC-62 melanoma. The total growth inhibition concentration (TGI) worked out at 4.86 µM with ACHN renal, 8.26 µM with SF-539 CNS and 10.7 µM in the test with SNB-19 CNS.

Turning to `CCCN1CCN(c2ccc3nc(-c4ccc5nc(-c6ccc(OCC)c(OCC)c6)[nH]c5c4)[nH]c3c2)CC1`, the GI50 in the test on CAKI-1 renal is 1.02 µM; in the test with HS 578T breast, 1.11 µM; in the test with OVCAR-5 ovarian, 1.67 µM; in the test on NCI/ADR-RES ovarian it was above 100 µM; with COLO 205 colon, 0.164 µM; in the test with U251 CNS, 0.398 µM. In addition, the 50% growth inhibitory concentration (GI50) was 0.348 µM in the test with UACC-62 melanoma, 1 µM in the test with ACHN renal, 0.724 µM with SF-539 CNS and 0.616 µM in the test on SNB-19 CNS. Moreover, the TGI in the test on CAKI-1 renal was 3.28 µM; in the test on HS 578T breast, 3.56 µM; with OVCAR-5 ovarian it was 4.32 µM; in the test on NCI/ADR-RES ovarian, above 100 µM; in the test with COLO 205 colon, 1.4 µM; in the test with U251 CNS, 1.55 µM. The concentration for total growth inhibition (TGI) is 1.87 µM with UACC-62 melanoma, 2.6 µM in the test on ACHN renal, 2.05 µM in the test on SF-539 CNS and 1.98 µM in the test on SNB-19 CNS.

For `C=C(CN1CCN(c2cccc(F)c2)CC1)c1ccc(C(=O)Nc2ccccc2N)cc1`, the GI50 with CAKI-1 renal is 0.629 µM; in the test with HS 578T breast it was 2.61 µM; with OVCAR-5 ovarian, 2.61 µM; in the test with NCI/ADR-RES ovarian, 0.307 µM; in the test on COLO 205 colon, 2.93 µM; with U251 CNS it was 1.41 µM. Also, the GI50 was 2.02 µM with UACC-62 melanoma, 4.59 µM in the test on ACHN renal, 1.45 µM in the test with SF-539 CNS and 1.95 µM in the test on SNB-19 CNS. For the same compound, the total growth inhibition concentration (TGI) in the test on CAKI-1 renal was 7.74 µM; in the test on HS 578T breast, above 100 µM; with OVCAR-5 ovarian, above 100 µM; with NCI/ADR-RES ovarian, 1.92 µM; in the test on COLO 205 colon it was 9.09 µM; in the test with U251 CNS it was 43 µM. Besides, the TGI in the test on UACC-62 melanoma is 63.5 µM; in the test on ACHN renal, 90.7 µM; in the test with SF-539 CNS, 5.77 µM; in the test with SNB-19 CNS it was above 100 µM.

For `CC([O-])C(=O)[O-].NCC1CCC1CN.[Pt+4]` (centres undefined), the GI50 with CAKI-1 renal, with HS 578T breast, in the test with OVCAR-5 ovarian, in the test with NCI/ADR-RES ovarian, with COLO 205 colon and in the test with U251 CNS was above 10 µM in each case. For the same compound, the GI50 was 6.87 µM in the test on UACC-62 melanoma, 6.19 µM in the test with ACHN renal, above 10 µM in the test on SF-539 CNS and above 10 µM in the test with SNB-19 CNS. In addition, the TGI in the test with CAKI-1 renal, with HS 578T breast, with OVCAR-5 ovarian, in the test with NCI/ADR-RES ovarian, in the test on COLO 205 colon and in the test with U251 CNS was above 10 µM throughout. In addition, the concentration for total growth inhibition (TGI) with UACC-62 melanoma, in the test on ACHN renal, in the test on SF-539 CNS and in the test on SNB-19 CNS was above 10 µM throughout.

For `COc1ccc(-c2nocc2-c2cc(OC)c(OC)c(OC)c2)cc1`, the GI50 in the test with CAKI-1 renal is 0.236 µM; in the test on HS 578T breast it was 0.216 µM; in the test on OVCAR-5 ovarian it was 1.38 µM; with NCI/ADR-RES ovarian, 0.0492 µM; in the test on COLO 205 colon, 0.0531 µM; in the test with U251 CNS, 0.0793 µM. The GI50 with UACC-62 melanoma is 0.0489 µM; with ACHN renal, 1.53 µM; in the test on SF-539 CNS, 0.132 µM; with SNB-19 CNS, 0.175 µM. Moreover, the concentration for total growth inhibition (TGI) in the test with CAKI-1 renal is above 100 µM; in the test with HS 578T breast, above 100 µM; in the test with OVCAR-5 ovarian, above 100 µM; with NCI/ADR-RES ovarian, above 61 µM; in the test with COLO 205 colon, 1.24 µM; with U251 CNS, above 81.1 µM. Moreover, the TGI with UACC-62 melanoma was 18.9 µM; in the test with ACHN renal, above 70.3 µM; in the test on SF-539 CNS it was 20.7 µM; in the test with SNB-19 CNS, above 100 µM.

Take `CC(=O)c1ccc(NCN2C(=O)c3ccccc3C2=O)cc1`: the concentration for total growth inhibition (TGI) with CAKI-1 renal, in the test on HS 578T breast, in the test with OVCAR-5 ovarian, in the test with NCI/ADR-RES ovarian, in the test with COLO 205 colon and in the test on U251 CNS was above 100 µM throughout. Besides, the total growth inhibition concentration (TGI) in the test on UACC-62 melanoma, in the test with ACHN renal, in the test on SF-539 CNS and in the test on SNB-19 CNS was above 100 µM in each case.

For `Cc1ccccc1/C=C1\CN(C(=O)OC(C)(C)C)C/C(=C\c2ccccc2C)C1=O`, the GI50 in the test on CAKI-1 renal was 2.06 µM; in the test on HS 578T breast, 3.99 µM; in the test with OVCAR-5 ovarian it was 2.16 µM; with NCI/ADR-RES ovarian, 3.49 µM; with COLO 205 colon it was 2.22 µM; in the test on U251 CNS it was 1.82 µM. Also, the GI50 is 2 µM in the test with UACC-62 melanoma, 2.7 µM in the test with ACHN renal, 1.94 µM in the test with SF-539 CNS and 1.81 µM in the test with SNB-19 CNS. The TGI in the test with CAKI-1 renal was found to be 4.25 µM; with HS 578T breast, 83.1 µM; in the test on OVCAR-5 ovarian, 4.86 µM; in the test with NCI/ADR-RES ovarian, 65.1 µM; in the test with COLO 205 colon, 5.25 µM; in the test with U251 CNS it was 3.95 µM. The TGI is 4.42 µM in the test with UACC-62 melanoma, 7.15 µM in the test with ACHN renal, 3.64 µM in the test on SF-539 CNS and 4.38 µM in the test with SNB-19 CNS.

Regarding `COC(=O)C1C2CCCN2OC1(C)CO` (centres undefined), the concentration for total growth inhibition (TGI) in the test on CAKI-1 renal, in the test with HS 578T breast, with OVCAR-5 ovarian, with NCI/ADR-RES ovarian, with COLO 205 colon and in the test on U251 CNS was above 100 µM throughout. The TGI with UACC-62 melanoma, with ACHN renal, in the test with SF-539 CNS and with SNB-19 CNS was above 100 µM throughout.

In the case of `CCN(CC(COc1ccc2c(c1)[n+]([O-])nc(N)[n+]2[O-])OC(C)=O)C(C)=O` (centres undefined), the total growth inhibition concentration (TGI) with CAKI-1 renal, in the test with HS 578T breast, in the test on OVCAR-5 ovarian, with NCI/ADR-RES ovarian, with COLO 205 colon and in the test with U251 CNS was above 100 µM in each case. In addition, the total growth inhibition concentration (TGI) with UACC-62 melanoma, in the test with ACHN renal, with SF-539 CNS and in the test on SNB-19 CNS was above 100 µM each time.

Turning to `C/C(=N\NC(=O)c1ccncc1)c1ccc(O)cc1O`, the GI50 in the test with CAKI-1 renal is 2.37 µM; in the test with HS 578T breast it was 43.3 µM; in the test with OVCAR-5 ovarian, 27 µM; with NCI/ADR-RES ovarian, 3.42 µM; with COLO 205 colon it was 3.8 µM; in the test on U251 CNS, 1.59 µM. The GI50 in the test on UACC-62 melanoma is 3.3 µM; in the test with ACHN renal it was 4.48 µM; in the test on SF-539 CNS, 5.67 µM; in the test with SNB-19 CNS, 5.29 µM. Also, the total growth inhibition concentration (TGI) with CAKI-1 renal was 8 µM; in the test with HS 578T breast, above 100 µM; in the test with OVCAR-5 ovarian it was above 100 µM; in the test on NCI/ADR-RES ovarian it was above 100 µM; with COLO 205 colon, above 100 µM; in the test with U251 CNS it was above 100 µM. For the same compound, the TGI in the test on UACC-62 melanoma, in the test with ACHN renal, with SF-539 CNS and in the test with SNB-19 CNS was above 100 µM throughout.
